# Columns and labels:
# MMTV-PyMT tumors = test: Drug treatment in vivo of mice bearing MMTV-PyMT tumors; design: species or system mouse
# Method: For tumor generation, tumor organoids were transplanted into the 4th mammary fat pad of FVB female mice. Rimadyl (0.067 mg/ml, Zoetis) was administered to mice in the drinking water from 24 h before surgery and for 48 h after surgery. Mice were also treated with temgesic (0.1 mg/kg, Indivior Europe Limited), 1 hr before and 12 h after surgery. Mice were anesthetized with isoflurane (2%, v/v) and their eyes were covered with duratears (Alcon). About 100,000 single cells derived from KB1P organoids or 200,000 single cells derived from MMTV-PyMT organoids were injected in 30 μl of BME (Amsbio, Cat. No. 3533-005-02). Mice were weighed and monitored three times a week after transplantation of tumor organoids. Tumor volume was measured with calipers three times weekly. The researcher performing the measurement of tumor volume was blinded to the treatment group. For survival experiments, endpoint was reached when tumor reached 2000 mm3. For specific experiments, reference is made to the schematic representations of treatment timelines depicted in the figures.
# Once tumors were established and reached a size of ˜7×7 mm, mice were randomized into treatment groups with the following drug dosages and timeline: • AC+T treatment: every 14 days, cyclophosphamide (144 mg/kg, administered via intraperitoneal injection), doxorubicin (5 mg/kg, administered via intravenous injection) and docetaxel (25 mg/kg, resuspended in acetonitrile containing 0.1% acetic acid, administered via intravenous injection). Doxorubicin hydrochloride (Adriamycin) and cyclophosphamide (C), when combined in a treatment, are herein referred to as “AC”. Taxanes, as broadly described and disclosed herein, are referred to as “T”. […]
# [1] = test system: human lung tumor organoids; test: Tumor organoids killing assay with autologous tumor-reactive T cells; assay type: cell-based; details: tumor-reactive T cells pre-treated with 10 nmol/L docetaxel
# Method: To express luciferase in the tumor organoids, we used pLenti CMV Puro LUC (w168-1; Plasmid #17477; Addgene). Tumor-reactive PBMC were thawed in pre-warmed T cell medium and incubated for 15 minutes with 25 U/ml Benzonase. After washing, cells were re-suspended at 2−3×10^6 cells/ml in T cell medium and cultured overnight at 37° C. The day after, PBMC were incubated with (or without) 10 nmol/L docetaxel for 48 hr. To determine the sensitivity of tumor and healthy organoids to T cell-mediated killing, flatbottom non-tissue culture treated plates were coated with 5 μg/ml αCD28 and kept at 4° C. overnight prior to co-culture. Tumor organoids were previously transduced with luciferase reporter gene. Organoids were isolated from Geltrex 48 hours prior to co-culture and stimulated with 200 ng/ml IFNγ for 24 hr prior to co-culture. The next day, part of the organoids was dissociated to single cells and counted using a hemocytometer. […] At the end of the 72 hours, tumor and healthy organoids viability in the different conditions was evaluated by microscopy, taking bright-field pictures at 5 and 10× magnification. Tumor cell viability in the different conditions was also measured by luciferase reporter assay using 3 μg/mL luciferin. Luminescence was measured with a Tecan reader (1,000 ms exposure).
smiles,measurement,setting,value
CC(=O)O[C@@]12CO[C@@H]1C[C@H](O)[C@@]1(C)C(=O)[C@H](O)C3=C(C)[C@@H](OC(=O)[C@H](O)[C@@H](NC(=O)OC(C)(C)C)c4ccccc4)C[C@@](O)([C@@H](OC(=O)c4ccccc4)[C@H]21)C3(C)C [docetaxel],anti-tumor effects of docetaxel (survival) upon T cell depletion,"MMTV-PyMT tumors; depletion of CD4 alone, CD8 alone or both",abrogated the anti-tumor effects
same,tumor outgrowth,MMTV-PyMT tumors; docetaxel 25 mg/kg intravenous every 14 days vs vehicle,delayed tumor outgrowth
same,accumulation of mitotic figures in tumors,MMTV-PyMT tumors; tumors isolated 24 h after the second docetaxel administration,did not observe an accumulation of mitotic figures
same,"anti-tumor capacity against tumor organoids (organoid viability, luciferase)",[1],increased their anti-tumor capacity

# Reference: US20250387481A1, “PRE-TREATED T CELLS FOR USE AS A MEDICAMENT” (STICHTING HET NEDERLANDS KANKER INSTITUUT-ANTONI VAN …, priority 2022, published 2025)
